According to ChEMBL document CHEMBL1128019, “Gem-disubstituted amino-ether based substance p antagonists” (Bioorg Med Chem Lett, 1994):

Molecular target: Substance-P receptor (Homo sapiens, UniProt P25103)
Test: Binding affinity for human NK1 receptor expressed in CHO cells
Format: cell-based

Chain of Substance-P receptor (P25103 whole entry): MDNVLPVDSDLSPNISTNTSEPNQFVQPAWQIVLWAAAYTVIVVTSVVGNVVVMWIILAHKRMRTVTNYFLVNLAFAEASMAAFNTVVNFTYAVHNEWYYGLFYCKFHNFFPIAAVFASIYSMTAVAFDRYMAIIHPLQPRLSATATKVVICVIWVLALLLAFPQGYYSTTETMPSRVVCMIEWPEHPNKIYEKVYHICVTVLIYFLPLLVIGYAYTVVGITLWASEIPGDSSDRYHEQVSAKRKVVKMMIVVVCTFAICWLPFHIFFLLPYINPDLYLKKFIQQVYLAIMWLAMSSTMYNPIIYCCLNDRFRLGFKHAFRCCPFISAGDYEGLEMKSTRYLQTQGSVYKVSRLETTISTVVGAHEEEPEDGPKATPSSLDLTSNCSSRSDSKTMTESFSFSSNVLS

SMILES	IC50
FC(F)(F)c1cc(COC[C@]2(c3ccccc3)CCCCN2)cc(C(F)(F)F)c1	1 nM
FC(F)(F)c1cc(COC[C@]2(c3ccccc3)CCCN2)cc(C(F)(F)F)c1	20 nM
